The results in this text go back to patent EP0367671B1, “Novel beta-D-phenylthioxylosides, their method of preparation and their use as pharmaceuticals” (FOURNIER INDUSTRIE ET SANTE, priority 1988, dated 1990).

The structures appear in SMILES notation.

The subject of this assay is venous thrombosis. Kind of assay: venous thrombosis protocol (venous stasis under hypercoagulation with activated factor X, Wessler technique; thrombus removed and weighed). The format is in vivo. The following applies: Rattus norvegicus, po; 12.5 mg/kg p.o., suspension in PEG 400; thrombosis induced 4 hours after treatment; unfasted male Wistar rats. The procedure:
A venous stasis is produced under hypercoagulation according to the technique described by WESSLER et al. (J. Applied Physiol. 1959, p. 943-946). As in the technique described by J. HAUPMAN et al. (Thrombosis and Haemostasis 43 (2) 1980, p. 118), the hypercoagulant used is a solution of activated factor X (Xa) supplied by the company Flow Laboratories (71 Knat per 12.5 ml of physiological serum).
The study is performed on unfasted male Wistar rats weighing 250 to 280 g and divided up into groups of 10 animals each. The test products are administered orally as a suspension in PEG 400. A thrombosis is induced 4 hours after this treatment and the thrombus formed is removed and weighed.
The results obtained at a dose of 12.5 mg/kg p.o. have been collated in Table I. The results obtained with the known products of the above-mentioned prior art have also been collated in this Table.
As a reminder, the inhibition in vivo is the change of the read-out against control, counted positive when it falls. Read a low inhibition in vivo as a weak effect. Take `N#Cc1ccc(S[C@@H]2SC[C@@H](O)[C@H](O)[C@H]2O)c(C(=O)c2ccccc2)c1` [Example 1, (2-benzoyl-4-cyanophenyl)-1,5-dithio-β-D-xylopyranoside]: the inhibition in vivo at 12.5 mg/kg turned out to be 69%. Take `CC(=O)O[C@@H]1[C@@H](OC(C)=O)[C@H](Sc2ccc(C#N)cc2C(=O)c2ccccc2)SC[C@H]1OC(C)=O` [Example 1a, (2-benzoyl-4-cyanophenyl)-2,3,4-tri-O-acetyl-1,5-dithio-β-D-xylopyranoside]: the inhibition in vivo at 12.5 mg/kg was found to be 43.8%. To `N#Cc1ccc(S[C@@H]2SC[C@@H](O)[C@H](O)[C@H]2O)c(C(O)c2ccccc2)c1` (stereo partly drawn) [Example 2, (4-cyano-2-phenylhydroxymethylphenyl)-1,5-dithio-β-D-xylopyranoside] belongs 61%; to `O=C(c1ccccc1)c1ccccc1S[C@@H]1SC[C@@H](O)[C@H](O)[C@H]1O` [Example 3, (2-benzoylphenyl)-1,5-dithio-β-D-xylopyranoside], 4%; to `N#Cc1ccc(C(=O)c2ccccc2S[C@@H]2SC[C@@H](O)[C@H](O)[C@H]2O)cc1` [Example 4, (2-(4-cyanobenzoyl)phenyl)-1,5-dithio-β-D-xylopyranoside], 88%. Then `N#Cc1ccc(C(O)c2ccccc2S[C@@H]2SC[C@@H](O)[C@H](O)[C@H]2O)cc1` (stereo partly drawn) [Example 5, (2-(4-cyanophenylhydroxymethyl)phenyl)-1,5-dithio-β-D-xylopyranoside], with 62%; and `N#Cc1cccc(C(=O)c2ccccc2S[C@@H]2SC[C@@H](O)[C@H](O)[C@H]2O)c1` [Example 6, (2-(3-cyanobenzoyl)phenyl)-1,5-dithio-β-D-xylopyranoside], with 59%. To `N#Cc1cccc(C(O)c2ccccc2S[C@@H]2SC[C@@H](O)[C@H](O)[C@H]2O)c1` (stereo partly drawn) [Example 7, (2-(3-cyanophenylhydroxymethyl)phenyl)-1,5-dithio-β-D-xylopyranoside] belongs 54%; to `N#Cc1ccccc1C(=O)c1ccccc1S[C@@H]1SC[C@@H](O)[C@H](O)[C@H]1O` [Example 8, (2-(2-cyanobenzoyl)phenyl)-1,5-dithio-β-D-xylopyranoside], 57%. The molecule `N#Cc1ccc(C(=O)c2cc(C(F)(F)F)ccc2S[C@@H]2SC[C@@H](O)[C@H](O)[C@H]2O)cc1` [Example 9, (2-(4-cyanobenzoyl)-4-trifluoromethylphenyl)-1,5-dithio-β-D-xylopyranoside] had an inhibition in vivo at 12.5 mg/kg of 56.5%.

Consider `N#Cc1ccc(C(O)c2cc(C(F)(F)F)ccc2S[C@@H]2SC[C@@H](O)[C@H](O)[C@H]2O)cc1` (stereo partly drawn) [Example 10, (2-(4-cyanophenylhydroxymethyl)-4-trifluoromethylphenyl)-1,5-dithio-β-D-xylopyranoside], for which testing at 12.5 mg/kg gave an inhibition in vivo of 61%.
